From ChEMBL document CHEMBL3046894, “Synthesis and Herbicidal Activity of Pyrimidinyl Salicylic and Thiosalicylic Acids” (J Pestic Sci, 1996)
Calls of active or inactive are those of the source. The calls are words filed in the database; no cut-off is given here.

Legend:
[1] = system: Gossypium hirsutum; assay: Pre-emergence phytotoxicity against Gossypium hirsutum (cotton) assessed as mortality at 6.3 g a.i/10 a; assay type: organism-based; conditions: in vivo, other
[2] = system: Glycine max; assay: Pre-emergence phytotoxicity against Glycine max (soybean) assessed as mortality at 1.6 g a.i/10 a; assay type: organism-based; conditions: in vivo, other
[3] = system: Abutilon theophrasti; assay: Pre-emergence herbicidal activity against Abutilon theophrasti (velvetleaf) assessed as mortality at 6.3 g a.i/10 a; assay type: functional; conditions: Abutilon theophrasti, pre-emergence
[4] = system: Digitaria sanguinalis; assay: Pre-emergence herbicidal activity against Digitaria sanguinalis (hairy crabgrass) assessed as growth inhibition at 25 g a.i/10 a; assay type: functional, organism-based
[5] = system: Glycine max; assay: Pre-emergence phytotoxicity against Glycine max (soybean) assessed as mortality at 6.3 g a.i/10 a; assay type: organism-based; conditions: in vivo, other
[6] = system: Chenopodium album; assay: Pre-emergence herbicidal activity against Chenopodium album assessed as growth inhibition at 25 g a.i/10 a; assay type: functional, organism-based
[7] = system: Cyperus iria; assay: Pre-emergence herbicidal activity against Cyperus iria assessed as growth inhibition at 25 g a.i/10 a; assay type: functional, organism-based
[8] = system: Xanthium strumarium; assay: Pre-emergence herbicidal activity against Xanthium strumarium (cocklebur) assessed as mortality at 6.3 g a.i/10 a; assay type: functional; conditions: Xanthium strumarium, pre-emergence
[9] = system: Chenopodium album; assay: Post-emergence herbicidal activity against Chenopodium album assessed as growth inhibition at 25 g a.i/10 a applied 11 days after germination as foliar spray; assay type: functional, organism-based
[10] = system: Cyperus iria; assay: Post-emergence herbicidal activity against Cyperus iria assessed as growth inhibition at 25 g a.i/10 a applied 11 days after germination as foliar spray; assay type: functional, organism-based
[11] = system: Glycine max; assay: Post-emergence phytotoxicity against Glycine max (soybean) assessed as mortality at 1.6 g a.i/10 a applied 11 days after germination as foliar spray; assay type: organism-based; conditions: in vivo, other, 264 h
[12] = system: Xanthium strumarium; assay: Post-emergence herbicidal activity against Xanthium strumarium (cocklebur) assessed as mortality at 6.3 g a.i/10 a applied 11 days after germination as foliar spray; assay type: functional; conditions: 264 h
[13] = system: Persicaria nodosa; assay: Post-emergence herbicidal activity against Persicaria nodosa assessed as growth inhibition at 25 g a.i/10 a applied 11 days after germination as foliar spray; assay type: functional, organism-based
[14] = system: Zea mays; assay: Post-emergence phytotoxicity against Zea mays (maize) assessed as mortality at 1.6 g a.i/10 a applied 11 days after germination as foliar spray; assay type: organism-based; conditions: in vivo, other, 264 h
[15] = Pre-emergence phytotoxicity against Zea mays (maize) assessed as mortality at 1.6 g a.i/10 a; assay type: organism-based; conditions: in vivo, 1.6 g a.i/10 a, read-out: mortality
[16] = system: Gossypium hirsutum; assay: Post-emergence phytotoxicity against Gossypium hirsutum (cotton) assessed as mortality at 6.3 g a.i/10 a applied 11 days after germination as foliar spray; assay type: organism-based; conditions: in vivo, other, 264 h
[17] = system: Ipomoea lacunosa; assay: Pre-emergence herbicidal activity against Ipomoea lacunosa assessed as mortality at 1.6 g a.i/10 a; assay type: functional; conditions: Ipomoea lacunosa, pre-emergence
[18] = system: Digitaria sanguinalis; assay: Post-emergence herbicidal activity against Digitaria sanguinalis (hairy crabgrass) assessed as growth inhibition at 25 g a.i/10 a applied 11 days after germination as foliar spray; assay type: functional, organism-based
[19] = system: Abutilon theophrasti; assay: Pre-emergence herbicidal activity against Abutilon theophrasti (velvetleaf) assessed as mortality at 1.6 g a.i/10 a; assay type: functional; conditions: Abutilon theophrasti, pre-emergence
[20] = system: Echinochloa crus-galli; assay: Post-emergence herbicidal activity against Echinochloa crus-galli (barnyard grass) assessed as growth inhibition at 25 g a.i/10 a applied 11 days after germination as foliar spray; assay type: functional, organism-based
[21] = system: Echinochloa crus-galli; assay: Pre-emergence herbicidal activity against Echinochloa crus-galli (barnyard grass) assessed as growth inhibition at 25 g a.i/10 a; assay type: functional, organism-based
[22] = system: Echinochloa crus-galli; assay: Pre-emergence herbicidal activity against Echinochloa crus-galli (barnyard grass) assessed as mortality at 1.6 g a.i/10 a; assay type: functional; conditions: Echinochloa crus-galli, pre-emergence
[23] = system: Persicaria nodosa; assay: Pre-emergence herbicidal activity against Persicaria nodosa assessed as growth inhibition at 25 g a.i/10 a; assay type: functional, organism-based
[24] = system: Echinochloa crus-galli; assay: Pre-emergence herbicidal activity against Echinochloa crus-galli (barnyard grass) assessed as mortality at 6.3 g a.i/10 a; assay type: functional; conditions: Echinochloa crus-galli, pre-emergence
[25] = system: Amaranthus retroflexus; assay: Post-emergence herbicidal activity against Amaranthus retroflexus assessed as growth inhibition at 25 g a.i/10 a applied 11 days after germination as foliar spray; assay type: functional, organism-based
[26] = system: Ipomoea lacunosa; assay: Pre-emergence herbicidal activity against Ipomoea lacunosa assessed as mortality at 6.3 g a.i/10 a; assay type: functional; conditions: Ipomoea lacunosa, pre-emergence
[27] = system: Xanthium strumarium; assay: Pre-emergence herbicidal activity against Xanthium strumarium (cocklebur) assessed as mortality at 1.6 g a.i/10 a; assay type: functional; conditions: Xanthium strumarium, pre-emergence
[28] = system: Glycine max; assay: Post-emergence phytotoxicity against Glycine max (soybean) assessed as mortality at 6.3 g a.i/10 a applied 11 days after germination as foliar spray; assay type: organism-based; conditions: in vivo, other, 264 h
[29] = system: Xanthium strumarium; assay: Post-emergence herbicidal activity against Xanthium strumarium (cocklebur) assessed as mortality at 1.6 g a.i/10 a applied 11 days after germination as foliar spray; assay type: functional; conditions: 264 h
[30] = system: Amaranthus retroflexus; assay: Pre-emergence herbicidal activity against Amaranthus retroflexus assessed as growth inhibition at 25 g a.i/10 a; assay type: functional, organism-based
[31] = system: Gossypium hirsutum; assay: Post-emergence phytotoxicity against Gossypium hirsutum (cotton) assessed as mortality at 1.6 g a.i/10 a applied 11 days after germination as foliar spray; assay type: organism-based; conditions: in vivo, other, 264 h
[32] = system: Zea mays; assay: Post-emergence phytotoxicity against Zea mays (maize) assessed as mortality at 6.3 g a.i/10 a applied 11 days after germination as foliar spray; assay type: organism-based; conditions: in vivo, other, 264 h
[33] = system: Echinochloa crus-galli; assay: Pre-emergence herbicidal activity against Echinochloa crus-galli (barnyard grass) assessed as mortality at 200 g a.i/10 a; assay type: functional, organism-based
[34] = system: Glycine max; assay: Pre-emergence phytotoxicity against Glycine max (soybean) assessed as mortality at 200 g a.i/10 a; assay type: organism-based; conditions: in vivo, other
[35] = system: Xanthium strumarium; assay: Pre-emergence herbicidal activity against Xanthium strumarium (cocklebur) assessed as mortality at 200 g a.i/10 a; assay type: functional, organism-based
[36] = system: Xanthium strumarium; assay: Pre-emergence herbicidal activity against Xanthium strumarium (cocklebur) assessed as mortality at 100 g a.i/10 a; assay type: functional
[37] = system: Ipomoea lacunosa; assay: Pre-emergence herbicidal activity against Ipomoea lacunosa assessed as mortality at 100 g a.i/10 a; assay type: functional
[38] = system: Echinochloa crus-galli; assay: Pre-emergence herbicidal activity against Echinochloa crus-galli (barnyard grass) assessed as mortality at 100 g a.i/10 a; assay type: functional
[39] = system: Ipomoea lacunosa; assay: Pre-emergence herbicidal activity against Ipomoea lacunosa assessed as mortality at 200 g a.i/10 a; assay type: functional
[40] = system: Abutilon theophrasti; assay: Pre-emergence herbicidal activity against Abutilon theophrasti (velvetleaf) assessed as mortality at 100 g a.i/10 a; assay type: functional
[41] = system: Abutilon theophrasti; assay: Pre-emergence herbicidal activity against Abutilon theophrasti (velvetleaf) assessed as mortality at 200 g a.i/10 a; assay type: functional
[42] = Pre-emergence phytotoxicity against Glycine max (soybean) assessed as mortality at 100 g a.i/10 a; assay type: organism-based; conditions: in vivo

COC(=O)c1cccc(Oc2nc(OC)cc(OC)n2)c1C(=O)O
Activity [1]: Non-toxic
Activity [2]: Non-toxic
mortality at 63 g/ha [3]: < 5%
growth inhibition (GI) [4]: Active
Activity [5]: Non-toxic
growth inhibition (GI) [6]: Active
growth inhibition (GI) [7]: Active
mortality at 63 g/ha [8]: < 5%
growth inhibition (GI) [9]: Active
growth inhibition (GI) [10]: Active
Activity [11]: Toxic
mortality at 63 g/ha [12]: < 5%
growth inhibition (GI) [13]: Active
Activity [14]: Toxic
mortality [15]: < 5%
Activity [16]: Toxic
mortality at 16 g/ha [17]: < 5%
growth inhibition (GI) [18]: Active
mortality at 16 g/ha [19]: < 5%
growth inhibition (GI) [20]: Active
growth inhibition (GI) [21]: inactive
mortality at 16 g/ha [22]: < 5%
growth inhibition (GI) [23]: Active
mortality at 63 g/ha [24]: < 5%
growth inhibition (GI) [25]: Active
mortality at 63 g/ha [26]: < 5%
mortality at 16 g/ha [27]: < 5%
Activity [28]: Toxic
mortality at 16 g/ha [29]: < 5%
growth inhibition (GI) [30]: Active
Activity [31]: Toxic
Activity [32]: Toxic

CN(C)C(=O)Nc1cccc(C(F)(F)F)c1 [FLUOMETURON]
Activity [33]: Active
Activity [34]: Toxic
Activity [35]: inactive
mortality at 1000 g/ha [36]: < 5%
mortality at 1000 g/ha [37]: < 5%
mortality at 1000 g/ha [38]: < 5%
mortality at 2000 g/ha [39]: < 5%
mortality at 1000 g/ha [40]: < 5%
mortality at 2000 g/ha [41]: < 5%
mortality [42]: < 5%
